*1 amine or outer side, *2 acyl side, *3 side chain or, on linkers, in order; H or OH if unused. Where a SMILES comes first, the peptide text is derived from it. The star is where a group is joined. pNA = O=[N+]([O-])c1ccc(N*)cc1; Suc = O=C(CCC(=O)[*:2])[*:1]; Cbz = O=C(OCc1ccccc1)*; Bz = O=C(c1ccccc1)*
test system: endopeptidase from L. lactis subsp. cremoris Wg2; test: Substrate specificity: hydrolysis of peptides by the purified endopeptidase, analysed by thin layer chromatography; assay type: biochemical; parameters: key to Activity: +: hydrolysis; -: no hydrolysis detectable; conditions: not given

**Q.** With `C[C@H](N)C(=O)N[C@@H](C)C(=O)N[C@@H](C)C(=O)N[C@@H](C)C(=O)N[C@@H](C)C(=O)O` [Ala5] as the molecule, how does the Activity read?
**A.** The Activity was “-”.

**Q.** For `C[C@H](N)C(=O)N[C@@H](C)C(=O)N[C@@H](C)C(=O)N[C@@H](C)C(=O)N[C@@H](C)C(=O)N[C@@H](C)C(=O)O` [Ala6], which Activity is on record?
**A.** The Activity was “-”.

**Q.** Which Activity does the source give for `C[C@H](N)C(=O)N1CCC[C@H]1C(=O)Nc1ccc([N+](=O)[O-])cc1` [Ala-Pro-pNA] (H-Ala-Pro-pNA) here?
**A.** Its Activity is “-”.

**Q.** For `NCCCC[C@H](NC(=O)CNC(=O)c1ccccc1)C(=O)O` [Bz-Gly-Lys] (Bz-Gly-Lys-OH), which Activity is on record?
**A.** Its Activity is “-”.

**Q.** Which Activity does the source give for `O=C(NCC(=O)N1CCC[C@H]1C(=O)O)c1ccccc1` [Bz-Gly-Pro] (Bz-Gly-Pro-OH) here?
**A.** The Activity was “-”.

**Q.** Which Activity does the source give for `NCC(=O)NCC(=O)O` [Gly-Gly] (H-Gly-Gly-OH) here?
**A.** The Activity was “-”.

**Q.** For `C[C@H](NC(=O)[C@@H]1CCCN1C(=O)CN)C(=O)N1CCC[C@H]1C(=O)O` [Gly-Pro-Ala-Pro] (H-GPAP-OH), which Activity is on record?
**A.** The Activity was “-”.

**Q.** With `NCC(=O)N1CCC[C@H]1C(=O)Nc1ccc([N+](=O)[O-])cc1` [Gly-Pro-pNA] (H-Gly-Pro-pNA) as the molecule, how does the Activity read?
**A.** The Activity was “-”.

**Q.** Which Activity does the source give for `CC(C)[C@H](NC(=O)CN)C(=O)N[C@@H](Cc1ccccc1)C(=O)O` [Gly-Val-Phe] (H-Gly-Val-Phe-OH) here?
**A.** The Activity was “-”.

**Q.** For `CC(C)C[C@H](NC(=O)[C@H](CC(C)C)NC(=O)[C@@H](N)CC(C)C)C(=O)O` [Leu-Leu-Leu] (H-Leu-Leu-Leu-OH), which Activity is on record?
**A.** Its Activity is “-”.

**Q.** Which Activity does the source give for `CC(C)C[C@H](NC(=O)[C@@H](N)CC(C)C)C(=O)O` [Leu-Leu] here?
**A.** The Activity was “-”.

**Q.** For `CSCC[C@H](N)C(=O)NCC(=O)NCC(=O)O` [Met-Gly-Gly] (H-Met-Gly-Gly-OH), which Activity is on record?
**A.** Its Activity is “-”.

**Q.** With `CSCC[C@H](NC(=O)[C@H](Cc1ccccc1)NC(=O)CNC(=O)CNC(=O)[C@@H](N)Cc1ccc(O)cc1)C(=O)O` [Metenkaphalin, Tyrosyl-glycyl-glycyl-phenylalanyl-methionine] as the molecule, how does the Activity read?
**A.** The Activity was “+”.

**Q.** Which Activity does the source give for `C[C@H](NC(=O)CCC(=O)O)C(=O)N[C@@H](C)C(=O)N[C@@H](C)C(=O)Nc1ccc([N+](=O)[O-])cc1` [Nsucc-Ala-Ala-Ala-pNA] here?
**A.** Its Activity is “-”.

**Q.** For `CC(C)C[C@H](NC(=O)[C@@H]1CCCN1C(=O)[C@H](C)NC(=O)[C@H](C)NC(=O)CCC(=O)O)C(=O)Nc1ccc([N+](=O)[O-])cc1` [Nsucc-Ala-Ala-Pro-Leu-pNA] (Suc-AAPL-pNA), which Activity is on record?
**A.** The Activity was “-”.

**Q.** With `CSCC[C@H](NC(=O)[C@@H](N)Cc1ccccc1)C(=O)O` [Phe-Met] (H-Phe-Met-OH) as the molecule, how does the Activity read?
**A.** The Activity was “-”.

**Q.** For `CC(C)[C@H](NC(=O)[C@@H](N)Cc1ccccc1)C(=O)O` [Phe-Val] (H-Phe-Val-OH), which Activity is on record?
**A.** The Activity was “-”.

**Q.** Which Activity does the source give for `N[C@@H](Cc1ccc(O)cc1)C(=O)NCC(=O)NCC(=O)O` [Tyr-Gly-Gly, Tyrosyl-glycyl-glycine] (H-Tyr-Gly-Gly-OH) here?
**A.** Its Activity is “-”.

**Q.** Which Activity does the source give for `CC(C)C[C@H](NC(=O)OCc1ccccc1)C(=O)NCC(=O)NCC(=O)Nc1ccc([N+](=O)[O-])cc1` [Z-Leu-Gly-Gly-pNA] (Cbz-Leu-Gly-Gly-pNA) here?
**A.** Its Activity is “-”.

**Q.** With `C[C@H](NC(=O)[C@H](Cc1ccccc1)NC(=O)OCc1ccccc1)C(=O)O` [Z-Phe-Ala] as the molecule, how does the Activity read?
**A.** Its Activity is “-”.

**Q.** With `C[C@H](NC(=O)[C@@H]1CCCN1C(=O)OCc1ccccc1)C(=O)O` [Z-Pro-Ala] (Cbz-Pro-Ala-OH) as the molecule, how does the Activity read?
**A.** Its Activity is “-”.

**Q.** For Glucagon, which Activity is on record?
**A.** The Activity was “+”.

**Q.** Which Activity does the source give for Neurotensin here?
**A.** Its Activity is “+”.

**Q.** Which results are given for oxydized insulin β-chain?
**A.** Activity: +; hydrolysis by the purified endopeptidase: hydrolyzed

**Q.** With β-Casomorphin as the molecule, how does the Activity read?
**A.** Its Activity is “-”.

same assay, conditions: chromogenic substrates: TLC, hydrolysis also measured at A410

**Q.** Which Activity does the source give for `NCCCC[C@H](N)C(=O)Nc1ccc([N+](=O)[O-])cc1` [Lys-pNA] here?
**A.** Its Activity is “-”.

**Q.** Which Activity does the source give for `O=C(O)CCC(=O)N[C@@H](Cc1ccccc1)C(=O)Nc1ccc([N+](=O)[O-])cc1` [Nsucc-Phe-pNA] here?
**A.** The Activity was “-”.

same assay, conditions: hydrolysis of the substrate by purified endopeptidase, analysed by TLC

**Q.** Which Activity does the source give for `NCC(=O)N1CCC[C@H]1C(=O)NCC(=O)NCC(=O)O` [Gly-Pro-Gly-Gly] (H-GPGG-OH) here?
**A.** Its Activity is “-”.

**Q.** Which Activity does the source give for `CC(C)C[C@H](N)C(=O)NCC(=O)NCC(=O)O` [Leu-Gly-Gly] (H-Leu-Gly-Gly-OH) here?
**A.** The Activity was “-”.

**Q.** Which Activity does the source give for `CSCC[C@H](NC(=O)[C@H](CC(C)C)NC(=O)CNC(=O)[C@H](Cc1ccccc1)NC(=O)[C@H](Cc1ccccc1)NC(=O)[C@H](CCC(N)=O)NC(=O)[C@H](CCC(N)=O)NC(=O)[C@@H]1CCCN1C(=O)[C@H](CCCCN)NC(=O)[C@@H]1CCCN1C(=O)[C@@H](N)CCCNC(=N)N)C(N)=O` [Substance P] here?
**A.** Its Activity is “+”.

**Q.** Which Activity does the source give for “Bradykinin (RPPGFSPFR; Bradykinin; UniProt P01042 381-389, looked up)” here?
**A.** The Activity was “+”.

**Q.** With “β-Casein(184-202) (DMPIQAFLLYQEPVLGPVR; UniProt P02666 199-217, looked up, fragment)” as the molecule, how does the Activity read?
**A.** Its Activity is “+”.

**Q.** For “β-Casein(203-209) (GPFPIIV; UniProt P02666 218-224, looked up, fragment)”, which Activity is on record?
**A.** The Activity was “+”.

**Q.** For “β-Casein( 33- 48) (FQSEEQQQTEDELQDK; UniProt P02666 48-63, looked up, fragment)”, which Activity is on record?
**A.** Its Activity is “-”.

test system: endopeptidase; test: Effect of potential inhibitors (chemical agents) on the endopeptidase activity (metenkaphalin hydrolysis, TLC); assay type: biochemical, L. lactis subsp. cremoris Wg2; parameters: key to Inhibition: +: Inhibition; -: No inhibition detectable; conditions: not given

**Q.** Which Inhibition does the source give for `COC(CNC(=O)c1ccccc1OCC(=O)O)[CH2][Hg][OH]` (stereo not drawn) [Mersalyl, O-(3-hydroxymercuri-2-methoxypropyl)-carbamylphenoxyacetate] here?
**A.** The Inhibition was “-”.

**Q.** And the “endopeptidase activity inhibited” value?
**A.** Its value is “did not have an effect on the activity”.

**Q.** Which Inhibition does the source give for `CCN1C(=O)C=CC1=O` [N-Ethylmaleimide] here?
**A.** Its Inhibition is “-”.

**Q.** What does the source list for `O=S(=O)(F)Cc1ccccc1` [PMSF, phenylmethylsulfonylfluoride]?
**A.** Inhibition: +; endopeptidase activity inhibited: inhibited

**Q.** With `CC1=CC(=O)c2c(O)cccc2C1=O` [Plumbagin] as the molecule, how does the Inhibition read?
**A.** The Inhibition was “-”.

**Q.** What about the “restoration of the enzyme activity inhibited by β-mercaptoethanol” value of the same molecule?
**A.** Its value is “could not restore the enzyme activity”.

**Q.** For `O=S(=O)(O)c1ccc2c(N=Nc3ccccc3[As](=O)(O)O)c(O)c(S(=O)(=O)O)cc2c1` [Thorin], which Inhibition is on record?
**A.** The Inhibition was “-”.

**Q.** With `O=C(O)c1cc[c]([Hg][Cl])cc1` [pCMB, p-chloromercuribenzoate] as the molecule, how does the Inhibition read?
**A.** Its Inhibition is “-”.

**Q.** What about the “endopeptidase activity inhibited” value of the same molecule?
**A.** Its value is “did not have an effect on the activity”.

**Q.** For `O=S(=O)(O)c1cc[c]([Hg][Cl])cc1` [pCMBS, p-chloromercuribenzenesulfonate], which Inhibition is on record?
**A.** Its Inhibition is “-”.

**Q.** What about the “endopeptidase activity inhibited” value of the same molecule?
**A.** The value was “did not have an effect on the activity”.

**Q.** With Hydroxylamine as the molecule, how does the Inhibition read?
**A.** Its Inhibition is “-”.

same assay, conditions: 1 mM chemical agent, purified enzyme 4 µg protein preincubated 10 min at 20°C; metenkaphalin 15 min at 30°C; TLC

**Q.** Which Inhibition does the source give for `O[C@H](CS)[C@H](O)CS` (racemic) [DTT, dithiothreitol] here?
**A.** The Inhibition was “-”.

**Q.** For `c1cnc2c(c1)ccc1cccnc12` [1,10-phenanthroline], which Inhibition is on record?
**A.** The Inhibition was “+”.

**Q.** For `N[C@@H](CSSC[C@H](N)C(=O)O)C(=O)O` [Cystine], which Inhibition is on record?
**A.** Its Inhibition is “-”.

**Q.** For `CCOC(=O)OC(=O)OCC` [DEPC], which Inhibition is on record?
**A.** Its Inhibition is “-”.

**Q.** With `OCCS` [β-Mercaptoethanol] as the molecule, how does the Inhibition read?
**A.** Its Inhibition is “+”.

same assay, conditions: chemical agent 1.0 mM

**Q.** For `O[C@H](CS)[C@H](O)CS` (racemic) [DTT, dithiothreitol], which “endopeptidase activity inhibited” value is on record?
**A.** The value was “not”.

**Q.** For `c1cnc2c(c1)ccc1cccnc12` [1,10-phenanthroline], which “endopeptidase activity inhibited” value is on record?
**A.** The value was “inhibited”.

same assay, conditions: oxidizing reagents up to 5 mM

**Q.** For oxidized gluta thione, which “restoration of the enzyme activity inhibited by β-mercaptoethanol” value is on record?
**A.** The value was “could not restore the enzyme activity”.

same assay, conditions: β-mercaptoethanol

**Q.** Which “reversibility of the inhibition of the enzyme” value does the source give for `OCCS` [β-Mercaptoethanol] here?
**A.** Its value is “irreversible”.

same assay, conditions: β-mercaptoethanol 1%

**Q.** For `OCCS` [β-Mercaptoethanol], which “endopeptidase activity inhibited” value is on record?
**A.** Its value is “inhibited”.

test system: LEP I; test: not given; conditions: cited from earlier work

**Q.** With Glucagon as the molecule, how does the “hydrolysis by LEP I” value read?
**A.** Its value is “cannot hydrolyse”.

**Q.** For oxydized insulin β-chain, which “hydrolysis by LEP I” value is on record?
**A.** Its value is “cannot hydrolyse”.
